Experimental findings from US20090298820A1, “3-SUBSTITUTED-1H-PYRROLO[2,3-B]PYRIDINE AND 3-SUBSTITUTED-1H-PYRROLO[3,2-B]PYRIDINE COMPOUNDS, THEIR USE AS MTOR KINASE AND PI3 KINASE INHIBITORS, AND THEIR SYNTHESES” (Wyeth, priority 2008, published 2009) are described below.

Structures are written as SMILES.

Holding throughout (assay type): biochemical
The target of experiment [1] is mTOR (Homo sapiens, UniProt P42345). The experiment in a line: mTOR enzyme assay (DELFIA format, His6-S6K substrate). To be noted: read-out: mTOR Kinase Median IC50.
Experiment [2] concerns the target PI3Kα (Homo sapiens, UniProt P42336). The experiment in a line: PI3K-alpha fluorescence polarization assay. To be noted: read-out: PI3Kα Median IC50.
For experiment [3], the target named is PI3Kγ (Homo sapiens, UniProt P48736). The experiment can be described thus: PI3K-gamma fluorescence polarization assay. To be noted: read-out: PI3Kγ Median IC50. For orientation: In fluorescence polarisation assays a small probe gives low polarisation when free and higher when bound to something large.
Chain of PI3Kγ (P48736 whole entry, species assumed): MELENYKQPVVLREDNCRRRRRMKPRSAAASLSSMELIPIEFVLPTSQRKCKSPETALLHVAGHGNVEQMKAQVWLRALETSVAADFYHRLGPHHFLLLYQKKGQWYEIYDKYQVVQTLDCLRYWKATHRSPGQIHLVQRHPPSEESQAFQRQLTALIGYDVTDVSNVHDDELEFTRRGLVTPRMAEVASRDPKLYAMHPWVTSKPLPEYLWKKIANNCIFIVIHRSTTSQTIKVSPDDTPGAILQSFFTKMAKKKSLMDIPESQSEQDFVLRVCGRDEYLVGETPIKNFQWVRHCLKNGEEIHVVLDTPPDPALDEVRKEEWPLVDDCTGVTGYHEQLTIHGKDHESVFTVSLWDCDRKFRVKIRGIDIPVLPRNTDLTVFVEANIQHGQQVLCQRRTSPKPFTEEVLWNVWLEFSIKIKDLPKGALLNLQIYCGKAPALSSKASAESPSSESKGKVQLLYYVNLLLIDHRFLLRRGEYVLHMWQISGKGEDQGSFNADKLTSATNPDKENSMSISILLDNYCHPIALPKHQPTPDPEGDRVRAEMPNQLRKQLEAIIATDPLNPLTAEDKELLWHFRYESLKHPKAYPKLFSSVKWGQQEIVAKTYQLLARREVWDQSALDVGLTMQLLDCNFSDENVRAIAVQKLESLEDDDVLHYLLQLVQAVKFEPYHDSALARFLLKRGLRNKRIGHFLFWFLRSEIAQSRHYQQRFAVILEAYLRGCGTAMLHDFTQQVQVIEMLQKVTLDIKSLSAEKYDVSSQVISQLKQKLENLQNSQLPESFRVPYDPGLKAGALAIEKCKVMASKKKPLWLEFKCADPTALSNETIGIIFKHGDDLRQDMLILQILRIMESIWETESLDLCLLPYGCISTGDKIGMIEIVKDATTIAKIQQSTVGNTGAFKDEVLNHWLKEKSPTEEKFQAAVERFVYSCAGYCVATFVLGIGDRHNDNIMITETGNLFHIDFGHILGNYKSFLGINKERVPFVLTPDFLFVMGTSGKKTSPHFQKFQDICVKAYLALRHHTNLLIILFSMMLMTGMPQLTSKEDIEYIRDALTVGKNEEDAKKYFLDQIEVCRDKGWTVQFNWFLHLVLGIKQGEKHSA

Chain of PI3Kα (P42336 whole entry, species assumed): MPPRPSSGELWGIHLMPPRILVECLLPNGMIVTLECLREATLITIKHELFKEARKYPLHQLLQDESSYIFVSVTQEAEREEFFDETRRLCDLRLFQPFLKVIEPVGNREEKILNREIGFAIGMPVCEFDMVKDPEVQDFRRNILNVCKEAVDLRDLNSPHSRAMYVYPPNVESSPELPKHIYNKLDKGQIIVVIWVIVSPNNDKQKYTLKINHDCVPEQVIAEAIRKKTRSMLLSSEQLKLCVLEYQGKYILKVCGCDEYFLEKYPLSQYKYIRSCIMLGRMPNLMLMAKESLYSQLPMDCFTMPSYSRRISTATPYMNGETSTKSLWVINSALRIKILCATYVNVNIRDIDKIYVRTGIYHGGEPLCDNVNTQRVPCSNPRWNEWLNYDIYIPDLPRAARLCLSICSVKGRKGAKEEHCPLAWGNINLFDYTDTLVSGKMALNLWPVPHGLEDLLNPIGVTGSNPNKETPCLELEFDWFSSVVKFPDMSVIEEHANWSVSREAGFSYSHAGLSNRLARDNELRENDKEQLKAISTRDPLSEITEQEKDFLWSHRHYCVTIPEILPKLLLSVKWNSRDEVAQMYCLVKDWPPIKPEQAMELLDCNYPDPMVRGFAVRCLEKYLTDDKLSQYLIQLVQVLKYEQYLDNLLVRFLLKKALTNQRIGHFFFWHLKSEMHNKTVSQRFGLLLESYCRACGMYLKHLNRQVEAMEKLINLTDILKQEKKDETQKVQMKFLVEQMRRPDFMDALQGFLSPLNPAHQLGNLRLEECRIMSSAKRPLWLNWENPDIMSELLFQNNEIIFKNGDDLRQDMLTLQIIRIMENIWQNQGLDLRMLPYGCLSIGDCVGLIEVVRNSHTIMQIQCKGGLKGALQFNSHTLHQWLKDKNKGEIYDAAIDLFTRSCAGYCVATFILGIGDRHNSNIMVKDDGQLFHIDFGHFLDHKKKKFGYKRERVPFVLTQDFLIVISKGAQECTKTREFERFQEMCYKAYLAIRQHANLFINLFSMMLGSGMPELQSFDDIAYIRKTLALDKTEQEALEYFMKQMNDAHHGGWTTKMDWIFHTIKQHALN
Chain of PI3Kα (P27986 whole entry partner, species assumed): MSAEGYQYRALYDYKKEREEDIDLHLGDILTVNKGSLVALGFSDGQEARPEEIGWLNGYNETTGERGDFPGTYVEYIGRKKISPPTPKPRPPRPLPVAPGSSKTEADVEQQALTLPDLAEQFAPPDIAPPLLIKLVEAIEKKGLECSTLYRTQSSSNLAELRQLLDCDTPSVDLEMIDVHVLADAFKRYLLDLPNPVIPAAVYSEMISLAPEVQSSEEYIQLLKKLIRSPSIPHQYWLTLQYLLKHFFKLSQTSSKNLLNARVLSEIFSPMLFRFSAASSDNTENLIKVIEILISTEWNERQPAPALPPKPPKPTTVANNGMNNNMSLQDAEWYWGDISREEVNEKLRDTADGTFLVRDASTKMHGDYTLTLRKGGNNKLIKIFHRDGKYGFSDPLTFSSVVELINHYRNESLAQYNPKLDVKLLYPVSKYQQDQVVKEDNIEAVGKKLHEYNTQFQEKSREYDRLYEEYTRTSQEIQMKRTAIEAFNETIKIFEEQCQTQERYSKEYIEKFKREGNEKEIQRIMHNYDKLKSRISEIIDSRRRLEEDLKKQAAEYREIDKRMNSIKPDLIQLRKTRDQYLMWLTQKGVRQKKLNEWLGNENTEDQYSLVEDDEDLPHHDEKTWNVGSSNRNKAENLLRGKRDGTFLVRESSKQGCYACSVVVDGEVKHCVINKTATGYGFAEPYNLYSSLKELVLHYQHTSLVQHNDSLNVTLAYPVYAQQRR

A word on the IC50: it is the concentration that inhibits the measured activity by half. On to `CN1CCC(N(C)C(=O)C2CCN(c3ccnc4c3c(C=C3Oc5ccc(NC(=O)Nc6cccnc6)cc5C3=O)cn4C)CC2)C1` (stereo not drawn) [Compound 205, N-methyl-1-[1-methyl-3-({3-oxo-5-[(pyridin-3-ylcarbamoyl)amino]-1-benzofuran-2(3H)-ylidene}methyl)-1H-pyrrolo[2,3-b]pyridin-4-yl]-N-(1-methylpyrrolidin-3-yl)piperidine-4-carboxamide], for which the 50% inhibitory concentration (IC50) was 49 nM in experiment [1], over 10 µM in experiment [2] and 9.23 µM in experiment [3].
Regarding `CN(C(=O)C1CCN(c2ccnc3c2c(C=C2Oc4ccc(NC(=O)Nc5cccnc5)cc4C2=O)cn3C)CC1)[C@@H]1CCNC1` [Compound 206, N-methyl-1-[1-methyl-3-({3-oxo-5-[(pyridin-3-ylcarbamoyl)amino]-1-benzofuran-2(3H)-ylidene}methyl)-1H-pyrrolo[2,3-b]pyridin-4-yl]-N-[(3R)-pyrrolidin-3-yl]piperidine-4-carboxamide], the half-inhibitory concentration (IC50) in experiment [1] is 47 nM; in experiment [2] it was over 10 µM; in experiment [3] it was over 10 µM.
On to `Cn1cc(C=C2Oc3ccc(NC(=O)Nc4cccnc4)cc3C2=O)c2c(N3CCC(C(=O)N[C@@H]4CCNC4)CC3)ccnc21` [Compound 207, 1-[1-methyl-3-({3-oxo-5-[(pyridin-3-ylcarbamoyl)amino]-1-benzofuran-2(3H)-ylidene}methyl)-1H-pyrrolo[2,3-b]pyridin-4-yl]-N-[(3R)-pyrrolidin-3-yl]piperidine-4-carboxamide], for which the values for the IC50 in experiment [1], in experiment [2] and in experiment [3] were 16 nM, at least 10 µM and 4.29 µM, respectively.
The like results for `CN(C(=O)C1CCN(c2ccnc3c2c(C=C2Oc4ccc(NC(=O)Nc5cccnc5)cc4C2=O)cn3C)CC1)[C@H]1CCNC1` [Compound 208, N-methyl-1-[1-methyl-3-({3-oxo-5-[(pyridin-3-ylcarbamoyl)amino]-1-benzofuran-2(3H)-ylidene}methyl)-H-pyrrolo[2,3-b]pyridin-4-yl]-N-[(3S)-pyrrolidin-3-yl]piperidine-4-carboxamide] were, in that order, 50 nM, over 10 µM and over 10 µM.
The matching figures for `Cn1cc(C=C2Oc3ccc(NC(=O)Nc4cccnc4)cc3C2=O)c2c(N3CCC(C(=O)N[C@H]4CCNC4)CC3)ccnc21` [Compound 209, 1-[1-methyl-3-({3-oxo-5-[(pyridin-3-ylcarbamoyl)amino]-1-benzofuran-2(3H)-ylidene}methyl)-1H-pyrrolo[2,3-b]pyridin-4-yl]-N-[(3S)-pyrrolidin-3-yl]piperidine-4-carboxamide]: 26.5 nM, over 10 µM and 4.17 µM.
As for `CN(C)C1CCN(C(=O)C2CCN(c3ccnc4c3c(C=C3Oc5ccc(NC(=O)Nc6cccnc6)cc5C3=O)cn4C)CC2)C1` (stereo not drawn) [Compound 210, 1-(2-{[4-(4-{[3-(dimethylamino)pyrrolidin-1-yl]carbonyl}piperidin-1-yl)-1-methyl-1H-pyrrolo[2,3-b]pyridin-3-yl]methylidene}-3-oxo-2,3-dihydro-1-benzofuran-5-yl)-3-pyridin-3-ylurea], the IC50 in experiment [1] is 11 nM; in experiment [2] it was over 10 µM; in experiment [3] it was 2.18 µM.
The like results for `CN(C(=O)C1CCN(c2ccnc3c2c(C=C2Oc4ccc(NC(=O)Nc5cccnc5)cc4C2=O)cn3C)CC1)C1CCS(=O)(=O)C1` (stereo not drawn) [Compound 211, N-(1,1-dioxidotetrahydrothiophen-3-yl)-N-methyl-1-[1-methyl-3-({3-oxo-5-[(pyridin-3-ylcarbamoyl)amino]-1-benzofuran-2(3H)-ylidene}methyl)-1H-pyrrolo[2,3-b]pyridin-4-yl]piperidine-4-carboxamide] were, in that order, 11.5 nM, over 10 µM and over 10 µM.
As for `Cn1cc(C=C2Oc3ccc(NC(=O)Nc4cccnc4)cc3C2=O)c2c(N3CCC(C(=O)NC4CCS(=O)(=O)C4)CC3)ccnc21` (stereo not drawn) [Compound 212, N-(1,1-dioxidotetrahydrothiophen-3-yl)-1-[1-methyl-3-({3-oxo-5-[(pyridin-3-ylcarbamoyl)amino]-1-benzofuran-2(3H)-ylidene}methyl)-1H-pyrrolo[2,3-b]pyridin-4-yl]piperidine-4-carboxamide], the IC50 in experiment [1] turned out to be 5.7 nM; in experiment [2] it was 7.45 µM; in experiment [3], 5.23 µM.
The matching figures for `CN(C(=O)C1CCN(c2ccnc3c2c(C=C2Oc4ccc(NC(=O)Nc5cccnc5)cc4C2=O)cn3C)CC1)C1CCOCC1` [Compound 213, N-methyl-1-[1-methyl-3-({3-oxo-5-[(pyridin-3-ylcarbamoyl)amino]-1-benzofuran-2(3H)-ylidene}methyl)-1H-pyrrolo[2,3-b]pyridin-4-yl]-N-(tetrahydro-2H-pyran-4-yl)piperidine-4-carboxamide]: 18.9 nM, 8.36 µM and 7.22 µM.
The like results for `Cn1cc(C=C2Oc3ccc(NC(=O)Nc4cccnc4)cc3C2=O)c2c(N3CCC(C(=O)NC4CCOCC4)CC3)ccnc21` [Compound 214, 1-[1-methyl-3-({3-oxo-5-[(pyridin-3-ylcarbamoyl)amino]-1-benzofuran-2(3H)-ylidene}methyl)-1H-pyrrolo[2,3-b]pyridin-4-yl]-N-(tetrahydro-2H-pyran-4-yl)piperidine-4-carboxamide] were, in that order, 10.2 nM, over 10 µM and over 10 µM.
Turning to `CN(Cc1ccccc1)C(=O)C1CCN(c2ccnc3c2c(C=C2Oc4ccc(NC(=O)Nc5cccnc5)cc4C2=O)cn3C)CC1` [Compound 215, N-benzyl-N-methyl-1-[1-methyl-3-({3-oxo-5-[(pyridin-3-ylcarbamoyl)amino]-1-benzofuran-2(3H)-ylidene}methyl)-1H-pyrrolo[2,3-b]pyridin-4-yl]piperidine-4-carboxamide], the IC50 in experiment [1] was 102 nM; in experiment [2], over 10 µM; in experiment [3], 9.28 µM.
The like results for `CN(C)C(=O)C1CCN(c2ccnc3c2c(/C=C2\Oc4ccc(NC(=O)Nc5ccc(CN6CCCCC6)cc5)cc4C2=O)cn3C)CC1` [Compound 216, N,N-dimethyl-1-(1-methyl-3-{(Z)-[3-oxo-5-({[4-(piperidin-1-ylmethyl)phenyl]carbamoyl}amino)-1-benzofuran-2(3H)-ylidene]methyl}-1H-pyrrolo[2,3-b]pyridin-4-yl)piperidine-4-carboxamide] were, in that order, 30 nM, 0.613 µM and 0.231 µM.
The matching figures for `CN(C)C(=O)C1CCN(c2ccnc3c2c(/C=C2\Oc4ccc(NC(=O)Nc5ccc(N6CCOCC6)nc5)cc4C2=O)cn3C)CC1` [Compound 217, N,N-dimethyl-1-(1-methyl-3-{(Z)-[5-{[(6-morpholin-4-ylpyridin-3-yl)carbamoyl]amino}-3-oxo-1-benzofuran-2(3H)-ylidene]methyl}-1H-pyrrolo[2,3-b]pyridin-4-yl)piperidine-4-carboxamide]: 97 nM, 4.01 µM and over 10 µM.
The like results for `CN1CCN(c2ccc(NC(=O)Nc3ccc4c(c3)C(=O)/C(=C/c3cn(C)c5nccc(N6CCC(C(=O)N(C)C)CC6)c35)O4)cc2)CC1` [Compound 218, N,N-dimethyl-1-(1-methyl-3-{(Z)-[5-({[4-(4-methylpiperazin-1-yl)phenyl]carbamoyl}amino)-3-oxo-1-benzofuran-2(3H)-ylidene]methyl}-1H-pyrrolo[2,3-b]pyridin-4-yl)piperidine-4-carboxamide] were, in that order, 445 nM, 0.994 µM and over 10 µM.
Turning to `Cn1cc(/C=C2\Oc3ccc(NC(=O)Nc4ccc(N5CCOCC5)nc4)cc3C2=O)c2c(N3CC4CCC(C3)O4)ccnc21` [Compound 219, 1-[(2Z)-2-{[1-methyl-4-(8-oxa-3-azabicyclo[3.2.1]oct-3-yl)-1H-pyrrolo[2,3-b]pyridin-3-yl]methylidene}-3-oxo-2,3-dihydro-1-benzofuran-5-yl]-3-(6-morpholin-4-ylpyridin-3-yl)urea], the IC50 in experiment [1] is 29 nM; in experiment [2], 2.22 µM; in experiment [3], over 10 µM.
The like results for `CN(C)CCOc1ccc(NC(=O)Nc2ccc3c(c2)C(=O)/C(=C/c2cn(C)c4nccc(N5CC6CCC(C5)O6)c24)O3)cc1` [Compound 220, 1-{4-[2-(dimethylamino)ethoxy]phenyl}-3-[(2Z)-2-{[1-methyl-4-(8-oxa-3-azabicyclo[3.2.1]oct-3-yl)-1H-pyrrolo[2,3-b]pyridin-3-yl]methylidene}-3-oxo-2,3-dihydro-1-benzofuran-5-yl]urea] were, in that order, 62.5 nM, 0.915 µM and over 10 µM.
The matching figures for `CN1CCN(NC(=O)Nc2ccc3c(c2)C(=O)/C(=C/c2cn(C)c4nccc(N5CC6CCC(C5)O6)c24)O3)CC1` [Compound 221, 1-[(2Z)-2-{[1-methyl-4-(8-oxa-3-azabicyclo[3.2.1]oct-3-yl)-1H-pyrrolo[2,3-b]pyridin-3-yl]methylidene}-3-oxo-2,3-dihydro-1-benzofuran-5-yl]-3-(4-methylpiperazin-1-yl)urea]: 175 nM, 0.221 µM and 1.01 µM.
The matching figures for `Cc1cnccc1CN(C)C(=O)C1CCN(c2ccnc3c2c(/C=C2\Oc4ccc(NC(=O)Nc5cccnc5)cc4C2=O)cn3C)CC1` [Compound 222, N-methyl-1-{1-methyl-3-[(Z)-{3-oxo-5-[(pyridin-3-ylcarbamoyl)amino]-1-benzofuran-2(3H)-ylidene}methyl]-1H-pyrrolo[2,3-b]pyridin-4-yl}-N-[(3-methylpyridin-4-yl)methyl]piperidine-4-carboxamide]: 34 nM, 2.83 µM and 2.54 µM.
As for `Cc1cc(CN(C)C(=O)C2CCN(c3ccnc4c3c(/C=C3\Oc5ccc(NC(=O)Nc6cccnc6)cc5C3=O)cn4C)CC2)ccn1` [Compound 223, N-methyl-1-{1-methyl-3-[(Z)-{3-oxo-5-[(pyridin-3-ylcarbamoyl)amino]-1-benzofuran-2(3H)-ylidene}methyl]-1H-pyrrolo[2,3-b]pyridin-4-yl}-N-[(2-methylpyridin-4-yl)methyl]piperidine-4-carboxamide], the IC50 in experiment [1] came to 23 nM; in experiment [2] it was 1.85 µM; in experiment [3], 1.27 µM.
